Assays:
[1] = Antioxidant degradation evaluation assay (iodometric titration of vitamin C); assay type: physicochemical; settings: vitamin C 10 μg/ml
Description: This assay was performed according to a method modified from the method shown by Roberts et al. (1997). First, a liquid sample containing a specific antioxidant at a concentration to be tested was prepared, and the liquid sample containing the specific antioxidant was added into a 250 mL Erlenmeyer flask by a pipette and deionized water was added the to the Erlenmeyer flask to reach the 100 mL scale mark. At the same time, 1 mL of 0.1 M sodium iodide (NaI) and 1 mL of 0.1 M hydrochloric acid (hydrogen chloride, HCl) and 1 mL of 2% starch aqueous solution (indicator) were added to the Erlenmeyer flask. Next, a burette was rinsed the with 0.025 M potassium iodate (KIO3) at least twice, first, and then filled with 0.025 M potassium iodate in a technique of avoiding bubble formation during the filling, and the initial volume of the solution (Vi) in the burette was record after the filling. Thereafter, the liquid sample containing the specific antioxidant mentioned above was titrated with 0.025 M potassium iodate. […] Depending on the condition, the titration operation mentioned above could be repeated two or three times, as appropriate. Finally, the specific antioxidant content could be calculated from the titration volume of potassium iodate.

[2] = ABTS free radical scavenging assay; settings: vitamin C 10 μg/ml, normal temperature
Description: Antioxidant capacity of a sample to be tested was evaluate by ABTS (English full name: 2,2′-azinobis-3-ethyl benzothiazoline-6-sulphonic acid) free radical scavenging test. Since ABTS and potassium persulphate (K2S2O8) will produce an oxidation reaction and form a stable blue-green water-soluble ABTS⋅^+ radical ion with a maximum absorption peak at 734 nm, ABTS⋅^+ free radical concentration can be detected through A734 nm. When the ABTS⋅^+ radical solution is added with an antioxidant (radical scavenger), the original single radicals are paired, causing the ABTS⋅^+ radical solution to fade and the A734 nm absorption value to decrease, thereby evaluating Free radical scavenging ability of the antioxidant can be evaluated.
The mixed solution was placed in a dark room at room temperature for 16 hours of reaction to form stable ABTS⋅^+ radical ions (blue-green), and then the mixed solution was diluted with deionized water to form a ABTS⋅^+ radical ion working solution with absorbance of 0.75±0.05 at 734 nm by a spectrophotometer.
Next, a sample to be tested and standards (Trolox) with different concentrations were added to the ABTS⋅^+ radical ion working solution, respectively, and a group in which only deionized water was added was used as a control group. Absorbance at 734 nm was detected by a spectrophotometer after 20 minutes of reaction. Abilities to scavenge ABTS⋅+ radicals of the standards (Trolox) with different concentrations were plotted as a scavenging standard curve. The measured absorbance of the sample to be tested and the control group are converted according to the standard curve to know the free radical scavenging ability of the sample to be tested. The formula for calculating the scavenging ability is: (1-ABSsample/ABScontrol)×100.

[3] = DPPH free radical scavenging assay; settings: normal temperature; for DPPH free radical capture rate: vitamin C 10 μg/ml
Description: DPPH is a stable free radical. When it is dissolved in methanol or ethanol, it will appear purple and has a strong absorbance at 515 nm. When the sample to be tested can directly react with DPPH radicals, it will block the […] reaction of DPPH free radicals. At this time, the DPPH solution which originally appeared blue-violet will turn into clear yellow, and the absorbance at 515 nm will decrease, and that means that the sample to be tested has an antioxidant component that captures DPPH free radicals. The lighter the color become, the stronger ability to capture DPPH free radicals the antioxidant component has, which means the better the antioxidant capacity of the sample to be tested has. This assay was performed according to a method modified from the method shown by Parejo et al (2003). Aqueous solution of the sample to be tested and standards (Glutathione) with different concentrations each 30 μl were added to the 96-well plate, respectively, and water was used as a blank control. Thereafter, 120 μl of 100 mM Tris-HCl buffer (pH 7.4) was added to the plate and then 150 μl of 500 μM DPPH (Sigma Sigma) ethanol solution was immediately added and uniformly mixed at room temperature and allowed to stand in the dark for 20 minutes. After that, absorbance at 515 nm was detected by a spectrophotometer. The more DPPH free radicals were scavenged, the more the absorbance value decreased. Ability of each sample to be tested to scavenge DPPH free radicals (also means the strength of the hydrogen supply capacity of the sample to be tested) can be determined by percentage of decrease in absorbance relative to the blank control group.

[4] = room temperature (about 26° C.), 24 hours

O=C1O[C@H]([C@@H](O)CO)C(O)=C1O [vitamin C, ascorbic acid]
vitamin C concentration decreased ([1]; 40° C., 4 hours): 20.4% | vitamin C concentration, % of the initial concentration ([1]; 40° C., 24 hours): about 24.3% | vitamin C concentration, % of the initial concentration ([1]; 40° C., 72 hours): 3.3% | vitamin C concentration reduced / degraded [1, 4]: 62.6% | vitamin C concentration, % of the initial concentration [1, 4]: about 40% | vitamin C concentration, % of the initial concentration ([1]; room temperature (about 26° C.), 72 hours): about 0.9% | ABTS radical ion scavenging rate ([2]; 0 hours): 57.08% | ABTS radical ion scavenging rate ([2]; 72 hours): 2.49% | ABTS radical ion scavenging rate ([2]; after 24 hours): 22.45% | decrease of antioxidant capacity (DPPH) ([3]; after 24 hours): about 60% | DPPH free radical capture rate ([3]; 0 hour): 86.77% | DPPH free radical capture rate ([3]; 72 hours): 2.99% | DPPH free radical capture rate ([3]; after 24 hours): 34.67%

Source: patent publication US11246822B2, “Biomedical composition for skin care and/or maintenance and delaying and/or inhibiting skin aging and the use thereof” (INDUSTRIAL TECHNOLOGY RESEARCH INSTITUTE, priority 2019, dated 2022)
